Source: patent US7803822B2, “Triazole derivative and use thereof” (Takeda Pharmaceutical Company Limited, priority 2005, dated 2010)
pIC50: −log10 of the molar value.

Tested on: not given
Assay: not given
Details: not given

melting point | Compound
192 °C | CCNC(=O)c1ccc(-n2nnc(C(=O)NC3CC3)c2CSC)cc1 [Example 129, N-cyclopropyl-1-{4-[(ethylamino)carbonyl]phenyl}-5-[(methylthio)methyl]-1H-1,2,3-triazole-4-carboxamide]
162 °C | C=Cc1c(C(=O)NC2CC2)nnn1-c1ccc(C(=O)NCC)cc1 [Example 115, N-cyclopropyl-1-{4-[(ethylamino)carbonyl]phenyl}-5-vinyl-1H-1,2,3-triazole-4-carboxamide]
132 °C | CCNC(=O)c1ccc(-n2nnc(C(=O)NC3CC3)c2COCc2ccccc2)c(OCc2ccccc2)c1 [Example 316, 1-{2-(benzyloxy)-4-[(ethylamino)carbonyl]phenyl}-5-[(benzyloxy)methyl]-N-cyclopropyl-1H-1,2,3-triazole-4-carboxamide]
203 °C | CCCc1c(C(=O)NC2CC2)nnn1-c1ccc(C(=O)NCC)cc1O [Example 315, N-cyclopropyl-1-{4-[(ethylamino)carbonyl]-2-hydroxyphenyl}-5-propyl-1H-1,2,3-triazole-4-carboxamide]
150.3 °C | CCNC(=O)c1ccc(-n2nnc(C(=O)NC3CC3)c2CCCCCF)cc1 [Example 111, N-cyclopropyl-1-{4-[(ethylamino)carbonyl]phenyl}-5-(5-fluoropentyl)-1H-1,2,3-triazole-4-carboxamide]
234 °C (dec.) | CCNC(=O)c1ccc(-n2nnc(C(=O)NC3CC3)c2CN2CCOCC2)cc1 [Example 128, N-cyclopropyl-1-{4-[(ethylamino)carbonyl]phenyl}-5-(morpholin-4-ylmethyl)-1H-1,2,3-triazole-4-carboxamide]
153 °C | CCNC(=O)c1ccc(-n2nnc(C(=O)NC3CC3)c2CNCc2ccccc2)cc1 [Example 126, 5-[(benzylamino)methyl]-N-cyclopropyl-1-{4-[(ethylamino)carbonyl]phenyl}-1H-1,2,3-triazole-4-carboxamide]
185 °C | CCNC(=O)c1ccc(-n2nnc(C(=O)NC3CC3)c2CO)c(O)c1 [Example 317, N-cyclopropyl-1-{4-[(ethylamino)carbonyl]-2-hydroxyphenyl}-5-(hydroxymethyl)-1H-1,2,3-triazole-4-carboxamide]
164 °C | CCNC(=O)c1ccc(-n2nnc(C(=O)NC3CC3)c2CN2CCCC2)cc1 [Example 127, N-cyclopropyl-1-{4-[(ethylamino)carbonyl]phenyl}-5-(pyrrolidin-1-ylmethyl)-1H-1,2,3-triazole-4-carboxamide]
156 °C | CCNC(=O)c1ccc(-n2nnc(C(=O)NC3CC3)c2CCO)cc1 [Example 114, N-cyclopropyl-1-{4-[(ethylamino)carbonyl]phenyl}-5-(2-hydroxyethyl)-1H-1,2,3-triazole-4-carboxamide]

Target: T1, human PAR-1 (Homo sapiens, UniProt P25116)
T1 construct: expressed in transfected cells; host or cells: CHO-K1 (transformant flag/trn/CHO-K1)
T1 sequence (P25116 22-425): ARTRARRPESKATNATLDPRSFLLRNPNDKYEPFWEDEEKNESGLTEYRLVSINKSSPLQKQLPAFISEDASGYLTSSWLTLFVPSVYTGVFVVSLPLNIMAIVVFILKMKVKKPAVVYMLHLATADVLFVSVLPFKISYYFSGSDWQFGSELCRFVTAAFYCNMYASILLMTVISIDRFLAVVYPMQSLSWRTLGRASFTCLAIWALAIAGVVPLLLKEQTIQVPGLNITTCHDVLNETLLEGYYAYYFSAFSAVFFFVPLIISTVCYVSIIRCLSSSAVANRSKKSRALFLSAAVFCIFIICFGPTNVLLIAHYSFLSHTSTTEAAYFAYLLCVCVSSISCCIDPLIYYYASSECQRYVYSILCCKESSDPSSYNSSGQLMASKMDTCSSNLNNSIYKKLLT
Assay: Evaluation of PAR-1 antagonistic action by intracellular calcium concentration variation assay (FLIPR)
Type: cell-based
Details: human PAR-1-expressing CHO cells, agonist peptide SFLLRN-NH2 final concentration 0.3 nM, Fluo-3AM
Method: Evaluation of PAR-1 Antagonistic Action of Compound by Intracellular Calcium Concentration Variation Assay
Human PAR-1-expressing cells was plated at 3×10^4 cells/well on a 96 well clear bottom plate (Corning 3904 type) and cultured for 16-24 hr. The medium was removed from the wells of the plate, measurement buffer (50 μL, 115 mM NaCl, 5.4 mM KCl, 1.8 mM CaCl2, 0.8 mM MgCl2, 13.8 mM D-glucose, 0.1% BSA, 20 mM HEPES, pH 7.4) containing 2.5 μg/mL of Fluo-3AM (manufactured by Dojindo Laboratories), 0.08% Pluronic F-127 and 2.5 mM Probenecid was added to the cells and the mixture was reacted at 37° C. for 1 hr. The cells were washed twice with the measurement buffer. After addition of the measurement buffer (100 μL), a measurement buffer (50 μL) containing a test compound was added, and the mixture was stood still for 10 min. The plate was moved to a fluorometry image-plate reader (FLIPR-1, manufactured by Molecular Devices). […] The intracellular calcium concentration was measured by FLIPR.

Compound | pIC50
CCCc1c(C(=O)NC2CC2)nnn1-c1ccc(NC(=O)C(C)C)cc1 [Example 3, N-cyclopropyl-1-[4-(isobutyrylamino)phenyl]-5-propyl-1H-1,2,3-triazole-4-carboxamide] | 6.28
CCNC(=O)c1ccc(-n2nnc(C(=O)NC3CC3)c2CCCCF)cc1 [Example 108, N-cyclopropyl-1-{4-[(ethylamino)carbonyl]phenyl}-5-(4-fluorobutyl)-1H-1,2,3-triazole-4-carboxamide] | 6.21
CCNC(=O)c1ccc(-n2nnc(C(=O)NC3CC3)c2CCCCCc2ccccc2)cc1 [Example 101, N-cyclopropyl-1-{4-[(ethylamino)carbonyl]phenyl}-5-(5-phenylpentyl)-1H-1,2,3-triazole-4-carboxamide] | 6.09
CCCCc1c(C(=O)NC2CC2)nnn1-c1ccc(C(=O)NCC)cc1 [Example 90, 5-butyl-N-cyclopropyl-1-{4-[(ethylamino)carbonyl]phenyl}-1H-1,2,3-triazole-4-carboxamide] | 5.62
CCCc1c(C(=O)NCC2CCCO2)nnn1-c1ccc(C(=O)NCC)cc1 (stereo not drawn) [Example 82, 1-{4-[(ethylamino)carbonyl]phenyl}-5-propyl-N-(tetrahydrofuran-2-ylmethyl)-1H-1,2,3-triazole-4-carboxamide] | 5.72
CCNC(=O)c1ccc(-n2nnc(C(=O)NC3CC3)c2COCc2ccccc2)cc1 [Example 94, 5-[(benzyloxy)methyl]-N-cyclopropyl-1-{4-[(ethylamino)carbonyl]phenyl}-1H-1,2,3-triazole-4-carboxamide] | 5.77
CCCc1c(C(=O)NCCc2c[nH]c3ccc(OC)cc23)nnn1-c1ccc(C(=O)NCC)cc1 [Example 87, 1-{4-[(ethylamino)carbonyl]phenyl}-N-[2-(5-methoxy-1H-indol-3-yl)ethyl]-5-propyl-1H-1,2,3-triazole-4-carboxamide] | 6.55
CCCc1c(C(=O)NCc2ccccn2)nnn1-c1ccc(C(=O)NCC)cc1 [Example 84, 1-{4-[(ethylamino)carbonyl]phenyl}-5-propyl-N-(pyridin-2-ylmethyl)-1H-1,2,3-triazole-4-carboxamide] | 5.89
CCNC(=O)c1ccc(-n2nnc(C(=O)NC3CC3)c2CCc2ccccc2)cc1 [Example 98, N-cyclopropyl-1-{4-[(ethylamino)carbonyl]phenyl}-5-(2-phenylethyl)-1H-1,2,3-triazole-4-carboxamide] | 6.30
C=CCCc1c(C(=O)NC2CC2)nnn1-c1ccc(NC(=O)NCC)cc1 [Example 41, 5-(3-buten-1-yl)-N-cyclopropyl-1-(4-{[(ethylamino)carbonyl]amino}phenyl)-1H-1,2,3-triazole-4-carboxamide] | 6.20
CCNC(=O)c1ccc(-n2nnc(C(=O)NC3CC3)c2CCCc2ccccc2)cc1 [Example 100, N-cyclopropyl-1-{4-[(ethylamino)carbonyl]phenyl}-5-(3-phenylpropyl)-1H-1,2,3-triazole-4-carboxamide] | 6.15
CCCc1c(C(=O)NCc2ccc3c(c2)OCO3)nnn1-c1ccc(C(=O)NCC)cc1 [Example 86, N-(1,3-benzodioxol-5-ylmethyl)-1-{4-[(ethylamino)carbonyl]phenyl}-5-propyl-1H-1,2,3-triazole-4-carboxamide] | 6.21
CCCc1c(C(=O)NC2CC2)nnn1-c1ccc(C(=O)NC2CC2)cc1 [Example 53, N-cyclopropyl-1-{4-[(cyclopropylamino)carbonyl]phenyl}-5-propyl-1H-1,2,3-triazole-4-carboxamide] | 5.47
CCCc1c(C(=O)NC2CC2)nnn1-c1ccc(NC(=O)NCC)cc1 [Example 27, N-cyclopropyl-1-(4-{[(ethylamino)carbonyl]amino}phenyl)-5-propyl-1H-1,2,3-triazole-4-carboxamide] | 6.43
CCCc1c(C(=O)NCc2cnc(C)cn2)nnn1-c1ccc(C(=O)NCC)cc1 [Example 83, 1-{4-[(ethylamino)carbonyl]phenyl}-N-[(5-methylpyrazin-2-yl)methyl]-5-propyl-1H-1,2,3-triazole-4-carboxamide] | 5.44
CCCc1c(C(=O)NC2CC2)nnn1-c1ccc(NC(=O)C(F)(F)F)cc1 [Example 16, N-cyclopropyl-5-propyl-1-{4-[(trifluoroacetyl)amino]phenyl}-1H-1,2,3-triazole-4-carboxamide] | 6.60

Results, then the compound that gave them:

pIC50 | Compound
6.13 | CCNC(=O)c1ccc(-n2nnc(C(=O)NC3CC3)c2CSC)cc1 [Example 129, N-cyclopropyl-1-{4-[(ethylamino)carbonyl]phenyl}-5-[(methylthio)methyl]-1H-1,2,3-triazole-4-carboxamide]
5.80 | CCNC(=O)c1ccc(-n2nnc(C(=O)NC3CC3)c2CCCCCF)cc1 [Example 111, N-cyclopropyl-1-{4-[(ethylamino)carbonyl]phenyl}-5-(5-fluoropentyl)-1H-1,2,3-triazole-4-carboxamide]
5.47 | CCNC(=O)c1ccc(-n2nnc(C(=O)NC3CC3)c2CCCF)cc1 [Example 109, N-cyclopropyl-1-{4-[(ethylamino)carbonyl]phenyl}-5-(3-fluoropropyl)-1H-1,2,3-triazole-4-carboxamide]
6.01 | CCNC(=O)c1ccc(-n2nnc(C(=O)NC3CC3)c2COc2ccc(F)cc2)cc1 [Example 123, N-cyclopropyl-1-{4-[(ethylamino)carbonyl]phenyl}-5-[(4-fluorophenoxy)methyl]-1H-1,2,3-triazole-4-carboxamide]
